Experimental data from patent US12527773B2, “Flavi-block: a pan-flavivirus inhibitor” (Baden-Württemberg Stiftung GmbH, priority 2020, dated 2026).
Where two headings read alike, the source gives them in different places.

What was measured:
[1] = system: FluAV; experiment: IC50 in established virological assays (Table 1), FluAV; format: cell-based; settings: Influenza A virus
[2] = system: MeV; experiment: IC50 in established virological assays (Table 1), MeV; format: cell-based, Measles morbillivirus
Protocol: (§1) In summary, a set of C10 derivatives (FIG. 12) was designed, synthesized and tested against HCV (which is considered as an established system to monitor drug effects against Flaviviridae) as well as DENV for comprehensive structure-activity relationship (SAR) analysis and target validation. IC50 and CC50 values for compound C10 were determined in established virological assays (Table 1). […] Further, said experiments underline the specificity of compound C10 for flaviviruses.

[3] = system: RSV; experiment: IC50 in established virological assays (Table 1), RSV; format: cell-based; settings: human respiratory syncytial virus
Protocol: as §1

[4] = Solubilization in dosing vehicle recipes; format: physicochemical
Protocol: The compound was assessed for solubilization in 5 different vehicle recipes: • 1. Physiological saline (0.9% NaCl solution in water) • 2. Kolliphor HS—physiological saline (20%:80%) • 3. DMSO-PEG400—physiological saline (20%:50%:30%) • 4. PEG400—5% dextrose in water (75%:25%) • 5. DMSO-Cremophor EL—5% Mannitol (10%:10%:80%)
To prepare the formulation using the DMSO-PEG400 —physiological saline (20%:50%:30%) recipe, the compound was first supplemented with the calculated volume of DMSO, vortexed for 1 minute and sonicated for 2 minutes at 40° C. Next, PEG400 and physiological saline were added. The final mixture was vortexed and sonicated for 2 minutes at 40° C. The working formulations batch was prepared for 1 h prior to the in vivo study.

[5] = system: HeLa-LC5-RIC cells; experiment: Cytotoxicity in HeLa-LC5-RIC cells (Cell Titer Glo); format: cell-based
Protocol: Cell viability was measured via the presence of ATP using the Promega Cell Titer Glo kit according to the manufacturer's instructions. Luminescence was detected using the Cytation3 by Biotek. […] (B) The same set of data as shown in FIG. 4A was plotted in a line graph. […] (D) As for FIG. 4A, Huh7.5 cells (1.0×10^4 cells/well) were seeded and incubated with C10 at the indicated concentrations for the indicated time points before measurement of viability using the Promega Cell Titer Glo kit.
It is shown that compound C10 is not toxic even a high concentrations of up to 40 μM.

[6] = system: ZIKV (Asian/Cook Islands/2014); experiment: Plaque assay of released virus, ZIKV-infected Vero cells; format: cell-based; settings: Zika virus
Protocol: (§2) Vero cells were infected with ZIKV at an MOI of 1 for 2 h (post infection), after which virus was removed, and fresh maintenance medium containing 2% FCS together with the indicated concentration of C10 added. For co-treat condition, Vero cells were infected with ZIKV at an MOI of 1 in the presence of C10 for 2 h, followed by removal of the virus/C10 inoculums, and addition of fresh 2% fetal calf serum maintenance medium. […] Results represent the mean ±SD for duplicate wells from a single assay (cf. Table 2 for pooled data).
(§3) Vero and BHK-21 cells were maintained in DMEM media supplemented with 10% heat-inactivated FBS at 37° C. in a humidified incubator supplemented with 5% CO2; A549 cells were maintained in F-12K medium supplemented with 10% heat-inactivated Fetal Bovine Serum (FBS), 2 mM L-glutamine, 50 U/I penicillin, 0.05 mg/l streptomycin. DENV-1-4 strains, cell culture conditions and Gen-Bank accession numbers, as well as details of RSV strains and culture are known in the art. […] Viral titer was subsequently determined by plaque assay (see below).
(§4) Vero cells were seeded into 24-well plates at a density of 2×10^5 cells/well and grown overnight in culture medium at 37° C. with 5% CO2 prior to infection with RSV, KUNV, ZIKV as indicated. BHK-21 cells were used for DENV1-4. […] The stain was removed by rinsing the cells with tap water, and the viral plaques were counted visually. […]

[7] = system: DENV3; experiment: Plaque assay of released virus, DENV3-infected Vero cells; format: cell-based; settings: Dengue virus
Protocol: as §2, with “DENV1-4” for “ZIKV”, “infection, p.i., (A)),” for “infection),”, “condition (c.t., (B)),” for “condition,”, “assay, representative of 2 independent experiments” for “assay”, “Tables 2A and 2B, infra,” for “Table 2”
as §3, with “streptomycin.” for “streptomycin. DENV-1-4 strains, cell culture conditions and Gen-Bank accession numbers, as well as details of RSV strains and culture are known in the art.”
as §4, with “indicated.” for “indicated. BHK-21 cells were used for DENV1-4.”

[8] = system: RSV; experiment: Plaque assay, RSV infection (A549 cells lysed at 22 h); format: cell-based; settings: human respiratory syncytial virus
Protocol: as §3
Vero cells were seeded into 24-well plates at a density of 2×10^5 cells/well and grown overnight in culture medium at 37° C. with 5% CO2 prior to infection with RSV, KUNV, ZIKV as indicated. BHK-21 cells were used for DENV1-4. The virus inoculum was removed and replaced with semisolid overlays of 0.8% aquacide II (Calbiochem) in DMEM+2% FBS, and the mixture was incubated at 37° C. with 5% CO2. After 3-5 days, the cells were fixed with neutral buffered formalin (Sigma) for 3 h at room temperature, rinsed with tap water, and stained with 1% crystal violet for 10 min. The stain was removed by rinsing the cells with tap water, and the viral plaques were counted visually. Dose-response curves were plotted from the plaque number versus the log of the concentration of the test compounds. […]

Compound: CCN1/C(=C\C=C\c2sc3cc(NC(C)=O)ccc3[n+]2CC)Sc2cc(NC(C)=O)ccc21.[I-] [C10, 6-acetamido-2-((1E,3E)-3-(6-acetamido-3-ethylbenzo[d]thiazol-2(3H)-ylidene)prop-1-en-1-yl)-3-ethylbenzo[d]thiazol-3-ium iodide]
- IC50 [1]: ~5 µM
- activity against Measles morbillivirus (MeV) [2]: inactive or has only minor activity
- IC50 ([2]; Measles morbillivirus, MeV): > 10 µM
- IC50 [3]: 4.3 µM
- solubility ([4]; 5 vehicle recipes): very low solubility
- concentration of full dissolution ([4]; only in DMSO-PEG400-physiological saline (20%:50%:30%)): 1000 µg/mL
- cytotoxicity [5]: not toxic
- EC50 ([6]; read-out: EC50 from plaque assays, ZIKV, c.t.): 0.09 µM
- EC50 ([6]; read-out: EC50 from plaque assays, ZIKV, p.i.): 0.21 µM
- EC50 ([7]; read-out: EC50 from plaque assays, DENV3, c.t.): 0.01 µM
- EC50 ([7]; read-out: EC50 from plaque assays, DENV3, p.i.): 0.6 µM
- EC50 ([8]; c.t., read-out: EC50 from plaque assays): 0.89 µM
- EC50 ([8]; co-added with virus (text, Tables 2A and 2B), read-out: EC50): ~0.8 µM
